One experiment has as its system SOST (Sclerostin). The experiment in a line: Assay for identification of SOST antagonists promoting bone growth (J Bone Miner Res 2006, 21(11), 1738-1749). An excerpt: Compounds useful in the methods of the present invention can be identified via a variety of methods known to one of skill in the art. Several exemplary methods for identifying such antagonists are described herein, including cell-based and in vitro techniques (Journal of Bone and Mineral Research 2006, 21(11), 1738-1749). A general method of identifying SOST antagonists involves evaluating the effects of antagonist candidates on bone formation under controlled conditions. Preferably bone formation is determined using micro-CT techniques on live animals. Preferred animals include rodents, more preferred are primates. Femur, tibia and vertebrae bones are particularly useful subjects for such study.
Briefly, the test animal is treated with a predetermined dose of a SOST antagonist candidate. A control animal is treated with a control solution, preferably a non-irritating buffer solution or other carrier.
Once the dosing schedule has been completed, both test and control animals are examined to determine the quantity of bone formation present. This can be accomplished by any suitable method, but is preferably performed on live animals to analyze the bone mineral content. Methods for micro-CT examination of bones in animals are well known in the art. […] Where necessary, levels of bone formation can be calculated by determining the volume of bone formation present in each animal. […]

A further experiment concerns C57BL/6 mice. The experiment can be described thus: Bone growth study in mice, daily i.p. for 30 days; serum osteocalcin by EIA Elisa. In kind it is in vivo. Particulars: four month old male C57BL/6 mice. The procedure:
Four month old male C57BL/6 mice were treated daily with saline vehicle or sclerostin inhibitors at low, mid, or high doses (via i.p) for 30 days. Study endpoints included a biochemical marker of bone formation, osteocalcin measured by EIA Elisa, and measurement of trabecular bone volume by mico-CT analysis on both the proximal tibia and L5 vertebra.

Results on one molecule are retold here after patent US20090258052A1, “COMPOUNDS AND METHODS FOR ALTERING BONE GROWTH” (OsteoGeneX Inc., priority 2008, published 2009).

In the case of `O=c1[nH]nc(SCCO)c(=O)[nH]1` [OGX-21], the “modulation of the Wnt pathway” value in the experiment on SOST (Sclerostin) (FIG. 1) was “modulating the Wnt pathway”. Besides, the “promotion of bone growth” value in the experiment with SOST (Sclerostin) (identification assay) is on record as “promoting bone growth”. In addition, the “percent increase in serum osteocalcin over baseline” value was 2% in the experiment with C57BL/6 mice (10 mg/kg (A)), 28% in the experiment on C57BL/6 mice (20 mg/kg (B)) and 15% with C57BL/6 mice (30 mg/kg (C)).
